# According to PMC3378952, “Plasmodium subtilisin-like protease 1 (SUB1): Insights into the active-site structure, specificity and function of a pan-malaria drug target” (International Journal for Parasitology, 2012):
# Where “and” joins values, the source holds several entries; their conditions need not be identical. Equal entries are not always repeated. *1 amine or outer side, *2 acyl side, *3 side chain or, on linkers, in order; H or OH if unused. Where a SMILES comes first, the peptide text is derived from it. Where no end group is shown, it is not given here. [ ]: non-standard residue; d: D form. The star is where a group is joined. ξ: configuration not given here. ξ3Amino2oxobutanoyl = CC(N[*:1])C(=O)C(=O)[*:2]; Abu(ψCOCO) = CC[C@H](N[*:1])C(=O)C(=O)[*:2]; AMC = Cc1cc(=O)oc2cc(N*)ccc12; βAla = NCCC(=O)O; NHcPr = C1CC1N*
# Columns and labels:
# rPfSUB1cat [1] = molecular target: T1, rPfSUB1cat (Plasmodium falciparum, UniProt Q8I0V0); assay: Cleavage of unlabelled and AMC peptide substrates by rPfSUB1cat (RP-HPLC); type: biochemical; settings: for hydrolysis by rPfSUB1cat: prolonged incubations, data not shown; for reduction of substrate peak intensity: by 120 min digestion of equimolar mixture, RP-HPLC
# T1 construct: core domain (rPfSUB1cat) comprising Ser328 to Tyr671; made in house; host or cells: baculovirus-infected insect cells (Tn5), then limited chymotrypsin digestion
# Text: (SERA4st1F-6R12); Ac-CITAQDDEEC (called SERA4st1F-6R); and Ac-[…] (SERA4st1F-6R-S). […] Initial hydrolysis rates were then plotted against inhibitor concentration.
# In a third approach to investigating the role of prime side interactions in PfSUB1–substrate recognition, we produced a modified form of the SERA4st1 peptide substrate (called SERA4st1-ADA) in which both the P1′ and P3′ residues were replaced by Ala. Based on our MD data, these substitutions would be predicted to abolish potentially important stabilizing interactions with the S′ surface of the enzyme. To compare cleavage efficiencies of SERA4st1 and SERA4st1-ADA, we used a previously-described method in which an equimolar mixture of the two peptides was supplemented with rPfSUB1cat and the rates of peptide hydrolysis established by RP-HPLC analysis of the resulting digestion products ([Child et al., 2010]). Under such conditions, because the peptides effectively act as competing substrates, their relative initial rates of hydrolysis are solely a function of the ability of PfSUB1 to discriminate between them, and so are directly proportional to their relative kcat/Km values, irrespective of their concentration ([Cornish-Bowden, 2004]).
# [2] = molecular target: rPfSUB1cat (recombinant P. falciparum SUB1 catalytic domain) (Plasmodium falciparum, UniProt Q8I0V0); assay: biochemical; settings: for IC50: IC50 for steady-state inhibition of rPfSUB1cat, dose-response, substrate 0.1 μM
# PbSUB1 = molecular target: T2, PbSUB1 (Plasmodium berghei, UniProt A0A509AM03); assay: biochemical
# T2 construct: recombinant Plasmodium falciparum SUB1 catalytic domain (rPfSUB1cat; closed circles) and rPbSUB1cat (closed triangles); 6-His (C); made in house; host or cells: baculovirus-infected insect cells (Tn5), then limited chymotrypsin digestion
# T2 sequence (A0A509AM03 257-574): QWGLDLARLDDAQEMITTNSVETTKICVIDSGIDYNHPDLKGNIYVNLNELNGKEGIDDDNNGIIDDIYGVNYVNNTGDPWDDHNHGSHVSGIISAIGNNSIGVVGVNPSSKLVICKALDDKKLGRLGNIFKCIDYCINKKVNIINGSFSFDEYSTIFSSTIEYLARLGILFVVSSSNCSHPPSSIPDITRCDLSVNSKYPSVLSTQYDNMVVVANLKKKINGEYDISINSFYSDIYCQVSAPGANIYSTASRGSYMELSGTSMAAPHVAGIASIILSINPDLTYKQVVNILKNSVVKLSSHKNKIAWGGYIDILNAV
# Text: (§1) Initial hydrolysis rates were then plotted against inhibitor concentration.
# rPvSUB1 = molecular target: T3, rPvSUB1 (Plasmodium vivax, UniProt E6Y8B9); assay: biochemical; settings: IC50 against rPvSUB1, dose-response
# T3 construct: 6-His (C); made in house; host or cells: baculovirus-infected insect cells (Tn5), then limited chymotrypsin digestion
# T3 sequence (E6Y8B9 287-604): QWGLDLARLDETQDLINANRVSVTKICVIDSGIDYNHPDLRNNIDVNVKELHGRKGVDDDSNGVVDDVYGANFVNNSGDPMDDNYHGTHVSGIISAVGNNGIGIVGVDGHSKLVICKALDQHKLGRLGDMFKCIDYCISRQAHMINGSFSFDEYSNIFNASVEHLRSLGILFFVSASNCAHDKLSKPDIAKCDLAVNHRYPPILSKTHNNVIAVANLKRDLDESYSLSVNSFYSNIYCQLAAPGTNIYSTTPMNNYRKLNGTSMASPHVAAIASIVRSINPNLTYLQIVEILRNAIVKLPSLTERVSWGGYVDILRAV
# Text: as §1
# PfSUB1 = settings: cited from earlier work
# rPbSUB1cat = settings: substrates 0.1 μM
# Text: as §1
# rPfSUB1cat [3] = molecular target: T1, rPfSUB1cat; type: biochemical; settings: substrates 0.1 μM
# Text: as §1
# rPbSUB1 = molecular target: T4, rPbSUB1 (Plasmodium berghei, UniProt A0A509AM03); assay: Cleavage of unlabelled N-acetylated decapeptides by rPbSUB1 (RP-HPLC); type: biochemical; settings: RP-HPLC examination of digestion products
# T4 construct: recombinant Plasmodium falciparum SUB1 catalytic domain (rPfSUB1cat; closed circles) and rPbSUB1cat (closed triangles); 6-His (C); made in house; host or cells: baculovirus-infected insect cells (Tn5), then limited chymotrypsin digestion
# T4 sequence (A0A509AM03 257-574): as the sequence (A0A509AM03 257-574) above
# [4] = molecular target: T5, recombinant Plasmodium falciparum subtilisin-like protease 1 (rPfSUB1), p54/p47 protease species (Plasmodium falciparum, UniProt O61142 218-690); assay: cell-based or functional assay
# T5 sequence: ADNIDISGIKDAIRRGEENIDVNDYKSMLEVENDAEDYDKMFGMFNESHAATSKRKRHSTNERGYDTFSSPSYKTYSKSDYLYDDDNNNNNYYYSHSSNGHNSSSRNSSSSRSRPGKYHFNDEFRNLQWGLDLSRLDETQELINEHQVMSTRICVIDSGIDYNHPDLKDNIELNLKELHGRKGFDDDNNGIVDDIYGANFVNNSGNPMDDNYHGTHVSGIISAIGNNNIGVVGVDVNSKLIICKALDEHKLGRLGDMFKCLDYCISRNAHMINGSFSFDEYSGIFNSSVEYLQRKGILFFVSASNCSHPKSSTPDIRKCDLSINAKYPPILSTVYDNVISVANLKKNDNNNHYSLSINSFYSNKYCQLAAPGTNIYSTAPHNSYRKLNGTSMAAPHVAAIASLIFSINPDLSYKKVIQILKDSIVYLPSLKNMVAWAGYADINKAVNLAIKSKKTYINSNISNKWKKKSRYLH
# [5] = ref Withers-Martinez et al., 2002
molecule,measurement,setting,value
CC[C@H](C)[C@H](NC(=O)[C@H](CCCCN)NC(C)=O)C(=O)N[C@H](C(=O)N[C@@H](C)C(=O)N[C@@H](CCC(N)=O)C(=O)Nc1ccc2c(C)cc(=O)oc2c1)[C@@H](C)O [Ac-KITAQ-AMC] (Ac-KITAQ-{AMC}),hydrolysis by rPfSUB1cat,rPfSUB1cat [1],completely resistant to hydrolysis
CC[C@H](NC(=O)[C@H](C)NC(=O)[C@@H](NC(=O)[C@@H](NC(=O)[C@H](CCCCN)NC(C)=O)[C@@H](C)CC)[C@@H](C)O)C(=O)C(=O)NC1CC1 [KS-182] (Ac-KITA[Abu(ψCOCO)]-NHcPr),Ki,[2],7.3 µM
same,IC50,[2],~6 µM and 6 µM
same,IC50,PbSUB1,≥ 100 µM
same,IC50,rPvSUB1,~12 µM and 12 µM
CC[C@H](C)[C@H](NC(=O)[C@H](CCCCN)NC(C)=O)C(=O)N[C@H](C(=O)N[C@@H](C)C(=O)NC(C)C(=O)C(=O)NCCC(=O)O)[C@@H](C)O (stereo partly shown) [KS-466] (Ac-KITA[ξ3Amino2oxobutanoyl][βAla]-OH),Ki,[2],0.7 µM
same,IC50,[2],1 µM and ~1 µM
same,IC50,rPvSUB1,2 µM and ~2 µM
"O=S(=O)(F)Cc1ccccc1 [PMSF, phenylmethylsulfonyl fluoride]",effect of PMSF on PfSUB1,PfSUB1; [5],unaffected
"O=C(O)c1cc[c]([Hg][OH])cc1 [pHMB, para-hydroxymercuribenzoate]",inhibition of PfSUB1 by pHMB,PfSUB1; [5],potently inhibited
"Ac-CITAQSDEEC (cysteine pairing not given here) [SERA4st1F-6R-S, 6-IATR-labelled fluorogenic substrate with P1′ Ser substitution of SERA4st1F-6R]",fold increase in initial hydrolysis rate by rPbSUB1cat vs SERA4st1F-6R,rPbSUB1cat,5.8 fold
same,effect of P1′ Asp to Ser substitution (vs SERA4st1F-6R) on cleavage by rPfSUB1cat,rPfSUB1cat [3],no significant effect
Ac-DVSGQ↓SENHQ [Ac-DVSGQ ↓ SENHQ],cleavage by rPbSUB1 at the expected position,rPbSUB1,correctly cleaved
Ac-EIKAET,hydrolysis by rPfSUB1cat,rPfSUB1cat [1],No hydrolysis
"Ac-KITAQADAES [SERA4st1-ADA, SERA4st1 with P1′ and P3′ residues replaced by Ala]",reduction of substrate peak intensity,rPfSUB1cat [1],~1%
same,"initial cleavage rate, fold lower than that of parental SERA4st1","rPfSUB1cat [1]; equimolar mixture of both peptides, SERA4st1 digested ⩽20%",at least 80 fold
"Ac-KITAQDDEES [SERA4st1, N-acetylated decapeptide based on a PfSUB1 processing site in SERA4]",reduction of substrate peak intensity,rPfSUB1cat [1],84.6%
Ac-TTRAE↓SEEDI [Ac-TTRAE ↓ SEEDI],cleavage by rPbSUB1 at the expected position,rPbSUB1,correctly cleaved
Ac-TTSGQ↓SSTEP [Ac-TTSGQ ↓ SSTEP],cleavage by rPbSUB1 at the expected position,rPbSUB1,correctly cleaved
Ac-VVTGE↓SEETS [Ac-VVTGE ↓ SEETS],cleavage by rPbSUB1 at the expected position,rPbSUB1,correctly cleaved
PfSUB1 prodomain (PD) released by autocatalytic cleavage of rPfSUB1 (domain or fragment) KEVRSEENGKIQDDAKKIVSELRFLEKVEDVIEKSNIGGNEVDADENSFNPDTEVPIEEIEEIKMRELKDVKEEKNKNDNHNNNNNNNNISSSSSSSSNTFGEEKEEVSKKKKKLRLIVSENHATTPSFFQESLLEPDVLSFLESKGNLSNLKNINSMIIELKEDTTDDELISYIKILEEKGALIESDKLVS,inhibitor potency against cognate enzyme,"PfSUB1; ref Jean et al., 2003",~0.005 µM
same,initial rate of cleavage of fluorogenic substrate SERA4st1F-6R12 (0.1 uM) by rPfSUB1cat (prodomain largely degraded) against an equivalent mass of untreated rPfSUB1 (with its prodomain),[4],9.8 fold
